“Also recorded” adds a separate entry of the source.
B1: Periostin (protein, UniProt Q15063 22-836, looked up)
Periostin: NNHYDKILAHSRIRGRDQGPNVCALQQILGTKKKYFSTCKNWYKKSICGQKTTVLYECCPGYMRMEGMKGCPAVLPIDHVYGTLGIVGATTTQRYSDASKLREEIEGKGSFTYFAPSNEAWDNLDSDIRRGLESNVNVELLNALHSHMINKRMLTKDLKNGMIIPSMYNNLGLFINHYPNGVVTVNCARIIHGNQIATNGVVHVIDRVLTQIGTSIQDFIEAEDDLSSFRAAAITSDILEALGRDGHFTLFAPTNEAFEKLPRGVLERIMGDKVASEALMKYHILNTLQCSESIMGGAVFETLEGNTIEIGCDGDSITVNGIKMVNKKDIVTNNGVIHLIDQVLIPDSAKQVIELAGKQQTTFTDLVAQLGLASALRPDGEYTLLAPVNNAFSDDTLSMDQRLLKLILQNHILKVKVGLNELYNGQILETIGGKQLRVFVYRTAVCIENSCMEKGSKQGRNGAIHIFREIIKPAEKSLHEKLKQDKRFSTFLSLLEAADLKELLTQPGDWTLFVPTNDAFKGMTSEEKEILIRDKNALQNIILYHLTPGVFIGKGFEPGVTNILKTTQGSKIFLKEVNDTLLVNELKSKESDIMTTNGVIHVVDKLLYPADTPVGNDQLLEILNKLIKYIQIKFVRGSTFKEIPVTVYTTKIITKVVEPKIKVIEGSLQPIIKTEGPTLTKVKIEGEPEFRLIKEGETITEVIHGEPIIKKYTKIIDGVPVEITEKETREERIITGPEIKYTRISTGGGETEETLKKLLQEEVTKVTKFIEGGDGHLFEDEEIKRLLQGDTPVRKLQANKKVQGSRRRLREGRSQ
notes: Periostin protein (500 ng/ml; BioVendor)

Experiments:
caErbb2 CMs [1] = test: Cell-cycle re-entry (Ki67) of P7 caErbb2 CMs treated in vitro with inhibitors or factors; assay type: cell-based, mouse; details: P7 neonatal caErbb2 heart cells, treated in vitro for 2 days
Excerpt: (§1) Doxycycline inducible CM restricted overexpression of a constitutively active Erbb2 (caErbb2) was generated by crossing TetRE-caErbb2 mouse line^65 (a B6SJLF1/J transgenic line in which this mutated Erbb2 is placed under the control of a minimal CMV promoter and the tetracycline-responsive element) with αMHC-tTA^66, which expresses the tetracycline-responsive transcriptional activator (tTA) under the control of the human alpha myosin heavy chain promoter (αMHC) promoter (see FIG. 10A). αMHC-tTA strain was created in the FVB background and then the line was backcrossed to C57BL/6. Doxycycline (DOX, Harlan Laboratories) was administered in the food to repress transgene expression.
(§2) Primary cardiomyocytes were isolated from 1-day-old (P1) and 7-days-old (P7) mice using a neonatal dissociation kit (gentleMACS, Germany), according to the manufacturer's instructions, and cultured in gelatin-coated (0.1%, G1393, Sigma, St. Louis, Mo., USA) wells with DMEM/F12 medium supplemented with L-glutamine, Na-pyruvate, Non-essential amino acids, penicillin, streptomycin, 5% Horse serum and 10% FBS (hereafter referred to as “complete-medium”) at 37° C. and 5% CO2.
(§3) In cultures isolated from hearts of P7 ctrl and caErbb2-cOE animals, the cells were seeded in the aforementioned complete-medium for 48 hours, in the presence of the following substances: MEK/MAPKK kinase inhibitor regarded in the text as ERK inhibitor (2 μM, PD0325901, Tocris Bioscience, Bristol, UK), AKT1/2 inhibitor (5 μM, AKT inhibitor VIII, ApexBio, Houston, Tex., USA), GSK3β inhibitor (10 μM, CHIR-99021, Axon Medchem, Netherlands), β-Catenin inhibitor (10 μM, IWR-1, Sigma, St. Louis, Mo., USA), p38 inhibitor (10 μM SB202190, Merck Millipore, Massachusetts, USA), Periostin (500 ng/ml; BioVendor, Brno Czech Republic), FGF1 (100 ng/ml; R&D Systems, MN, USA). The dissolving reagents were added to unstimulated samples. Subsequently, cells were fixed in 4% PFA and stained for markers of interest.
(§4) Heart sections underwent deparaffinization, fixation in 4% PFA (5 minutes) and microwave antigen retrieval in EDTA or citric acid buffer, followed by gradual chilling. Then heart sections and cultured cells were processed in the following manner. Samples were permeabilized with 0.5% Triton X-100 in PBS for 5 minutes and blocked with 5% bovine serum albumin (BSA, Sigma, St. Louis, Mo., USA) in PBS containing 0.1% Triton for 1 hour at room temperature. Then samples were incubated 1 hour at room temperature or overnight at 4° C. with the following antibodies diluted in 3% BSA blocking solution: anti-Troponin T (1:200, ab33589, Abcam, Cambridge, Mass., USA), anti-Troponin I (1:200, ab47003, Abcam, Cambridge, Mass., USA) or anti-NKX2.5 (1:200, ab35842, Abeam, Cambridge, Mass., USA) Abs were used to identify CMs. Anti-Ki67 antibody (1:200, 275R, Cell Marque, Austin, Tex., USA) anti-BRDU antibody (1:100, G3G4, DSHB, Iowa City, Iowa, USA), anti-phosphorylated-Histone3 (pH3) antibody (1:200, SC-8656-R, Santa Cruz Biotechnology Inc., Santa Cruz, Calif., USA) and anti-Aurora B (1:100, 611082, BD Transduction Laboratories, Lexington, Ky., USA) were used to analyze cell cycle re-entry, DNA synthesis, karyokinesis and cytokinesis, respectively. Other Abs used in the study: anti-ErbB2 (1:50, sc-284, Santa Cruz Biotechnology Inc., Santa Cruz, Calif., USA), anti-αSMA (1:50, A5691, Sigma, St. Louis, Mo., USA), RUNX1 (1:200, ab92336, Abcam, Cambridge, Mass., USA), anti-DAB2 (1:200, sc-13982, Santa Cruz Biotechnology Inc., Santa Cruz, Calif., USA), anti-β-Catenin (1:200, ab32572, Abcam, Cambridge, Mass., USA). After three washes with PBS, 10 minutes each, samples were stained for 1 hour at room temperature or overnight at 4° C. with fluorescent secondary antibodies (Abeam, Cambridge, Mass., USA) followed by 10 minutes of DAPI (4,6-diamidino-2-phenylindole dihydrochloride) staining for nuclei visualization. […]

caErbb2 CMs [2] = test: Dedifferentiation (RUNX1 expression, sarcomeric disassembly) of P7 caErbb2 CMs treated in vitro with inhibitors or factors; assay type: cell-based, mouse; details: P7 neonatal caErbb2 heart cells, treated in vitro for 2 days
Excerpt: as §1, §2, §3, §4

caErbb2 CMs [3] = test: Hypertrophy (cell area) of P7 caErbb2 CMs treated in vitro with inhibitors or factors; assay type: cell-based, mouse; details: P7 neonatal caErbb2 heart cells, treated in vitro for 2 days
Excerpt: as §1, §2, §3, §4

β-Catenin in caErbb2 CMs = test: β-Catenin immunofluorescence in P7 caErbb2 heart cells treated in vitro with inhibitors; assay type: cell-based, mouse; details: P7 neonatal caErbb2 heart cells, 10 μM
Excerpt: as §1
Primary cardiomyocytes were isolated from 1-day-old (P1) and 7-days-old (P7) mice using a neonatal dissociation kit (gentleMACS, Germany), according to the manufacturer's instructions, and cultured in gelatin-coated (0.1%, G1393, Sigma, St. Louis, Mo., USA) wells with DMEM/F12 medium supplemented with L-glutamine, Na-pyruvate, Non-essential amino acids, penicillin, streptomycin, 5% Horse serum and 10% FBS (hereafter referred to as “complete-medium”) at 37° C. and 5% CO2. […]

P1 and P7 mouse CMs = test: NRG1-stimulated proliferation of cultured P1 and P7 cardiomyocytes (Ki67, BrdU, pH3, AuroraB immunofluorescence, counting newly formed CMs); assay type: cell-based; details: various NRG1 doses, 72 hours
Experimental: as §2
In experiments involving administration of Neuregulin-1b (NRG1, R&D Systems, MN, USA), the cells were allowed to adhere for 48 hours in complete-medium. Subsequently, the medium was replaced with an FBS-deprived complete-medium containing the indicated NRG1 doses for 72 hours. BrdU (10 μM, B5002, Sigma, St. Louis, Mo., USA) was introduced along with NRG1. Cells were fixed in 4% PFA and stained for markers of interest.
(§5) Heart sections underwent deparaffinization, fixation in 4% PFA (5 minutes) and microwave antigen retrieval in EDTA or citric acid buffer, followed by gradual chilling. […] Slides were mounted with Immu-mount (9990412, Thermo scientific, MA, USA) and viewed under a fluorescence microscope (Nikon Intensilight or Nikon eclipse 90i, Nikon, Düsseldorf, Germany) or spinning disk confocal microscope (Carl Zeiss, Thornwood, N.Y., USA) as specified in the figure legends.

neonatal Erbb2-cKO CMs = test: NRG1-stimulated proliferation of cultured CMs from P1 Erbb2-cKO mice (Ki67, pH3, newly formed CMs); assay type: cell-based, mouse; details: CMs isolated from P1 Erbb2-cKO mice, NRG1 in vitro
Excerpt: CM-restricted deletion of Erbb2 (Erbb2-cKO) was generated by crossing Erbb2^flox/flox 41 to Erbb2^lacZ/+; αMHC-Cre mice (see FIG. 2A). The Erbb2^lacZ/+ mice used in this study carry an allele that encodes a nonfunctional ErbB2-galactosidase fusion protein lacking the tyrosine kinase domain^42. In some experiments, addition of ROSA26-tdTomato allele to this system has been used to label cardiac muscle cell lineage in Erbb2-cKO mice. Erbb2^flox/flox and Erbb2^lacZ/+ mice were maintained on a C57BL/6 background. […]
as §5

| Molecule | caErbB2-induced CM proliferation / cell cycle re-entry (Ki67) (caErbb2 CMs [1]) | caErbB2-induced CM dedifferentiation (sarcomeric disassembly and RUNX1 expression) (caErbb2 CMs [2]) | caErbB2-induced hypertrophic response (CM cell area) (caErbb2 CMs [3]) | RUNX1 expression in caErbb2 CMs (caErbb2 CMs [2]) | β-Catenin accumulation in caErbb2 CMs (β-Catenin in caErbb2 CMs) | CM proliferation (cell cycle activity, DNA synthesis, mitosis, cytokinesis, newly formed CMs) (P1 and P7 mouse CMs; P1 mouse CMs in vitro) | CM proliferation (cell cycle activity, DNA synthesis, mitosis, cytokinesis, newly formed CMs) (P1 and P7 mouse CMs; P7 mouse CMs in vitro) | CM proliferation (Ki67, pH3, newly formed CMs) (neonatal Erbb2-cKO CMs) |
| --- | --- | --- | --- | --- | --- | --- | --- | --- |
| O=c1[nH]c2ccccc2n1C1CCN(Cc2ccc(-c3nc4cc5[nH]cnc5cc4nc3-c3ccccc3)cc2)CC1 [AKT inhibitor, AKT inhibitor VIII] | moderate effect | promoted massive dedifferentiation | reduced hypertrophic response | – | – | – | – | – |
| Oc1ccc(-c2nc(-c3ccncc3)c(-c3ccc(F)cc3)[nH]2)cc1 [p38 inhibitor, SB202190] | enhanced | – | No obvious effects | increased | – | – | – | – |
| O=C(Nc1cccc2cccnc12)c1ccc(N2C(=O)[C@@H]3[C@H](C2=O)[C@@H]2C=C[C@H]3C2)cc1 [β-Catenin inhibitor, IWR-1] | without significantly affecting | – | without significantly affecting | reduced | – | – | – | – |
| Cc1c[nH]c(-c2cnc(NCCNc3ccc(C#N)cn3)nc2-c2ccc(Cl)cc2Cl)n1 [GSK3β inhibitor, CHIR-99021] | promoted β-Catenin independent increase in cell cycle activity | – | – | further increased | further increased | – | – | – |
| FGF1 | enhanced | – | No obvious effects | p38 inhibition, in contrast to FGF1 and Periostin, increased RUNX1 expression | – | – | – | – |
| O=C(NOC[C@H](O)CO)c1ccc(F)c(F)c1Nc1ccc(I)cc1F [ERK inhibitor, PD0325901] | completely suppressed | completely suppressed | reduced the hypertrophic response | – | – | – | – | – |
| Neuregulin-1b [NRG1] | – | – | – | – | – | dose-dependent increase | profoundly reduced effects; also recorded: diminished | unable to induce CM proliferation |
| B1 | enhanced | – | No obvious effects | p38 inhibition, in contrast to FGF1 and Periostin, increased RUNX1 expression | – | – | – | – |
